Results taken from the NIST ThermoML archive (doi:10.1016/j.jct.2014.05.016).

Assay: xn = mol fraction of the nth substance listed
Settings: 100 kPa, Liquid; for viscosity: Concentric cylinders viscometry; for mass density: Vibrating tube method

C[n+]1ccn(CCO)c1.F[B-](F)(F)F [1-(2-hydroxyethyl)-3-methylimidazolium tetrafluoroborate] + CCCC[n+]1ccccc1.F[B-](F)(F)F
Settings	mass density [kg/m3]	viscosity [mPa·s]
293.15 K, x1 = 0.1003	1229	218.7
293.15 K, x1 = 0.2001	–	205.9
293.15 K, x1 = 0.2004	1242.4	–
293.15 K, x1 = 0.2997	–	193.9
293.15 K, x1 = 0.3003	1255.9	–
293.15 K, x1 = 0.3999	1269.7	184.2
293.15 K, x1 = 0.4996	–	176.1
293.15 K, x1 = 0.5007	1284.2	–
293.15 K, x1 = 0.5991	1298.7	169.5
293.15 K, x1 = 0.6954	1313.4	–
293.15 K, x1 = 0.6997	–	164.2
293.15 K, x1 = 0.7997	1329.9	–
293.15 K, x1 = 0.7999	–	159.9
293.15 K, x1 = 0.8996	1346.1	–
293.15 K, x1 = 0.8998	–	155.4
293.15 K, x1 = 1	1362.4	153.6
298.15 K, x1 = 0.1003	1225.5	160.4
298.15 K, x1 = 0.2001	–	151.5
298.15 K, x1 = 0.2004	1238.9	–
298.15 K, x1 = 0.2997	–	143.4
298.15 K, x1 = 0.3003	1252.3	–
298.15 K, x1 = 0.3999	1266.1	136.7
298.15 K, x1 = 0.4996	–	131.1
298.15 K, x1 = 0.5007	1280.6	–
298.15 K, x1 = 0.5991	1295.1	126.4
298.15 K, x1 = 0.6954	1309.8	–
298.15 K, x1 = 0.6997	–	122.7
298.15 K, x1 = 0.7997	1326.1	–
298.15 K, x1 = 0.7999	–	119.5
298.15 K, x1 = 0.8996	1342.3	–
298.15 K, x1 = 0.8998	–	116
298.15 K, x1 = 1	1358.7	115.1
303.15 K, x1 = 0.1003	1222	120.3
303.15 K, x1 = 0.2001	–	114.2
303.15 K, x1 = 0.2004	1235.4	–
303.15 K, x1 = 0.2997	–	108.5
303.15 K, x1 = 0.3003	1248.8	–
303.15 K, x1 = 0.3999	1262.5	104
303.15 K, x1 = 0.4996	–	99.88
303.15 K, x1 = 0.5007	1277	–
303.15 K, x1 = 0.5991	1291.4	96.68
303.15 K, x1 = 0.6954	1306.1	–
303.15 K, x1 = 0.6997	–	94.02
303.15 K, x1 = 0.7997	1322.4	–
303.15 K, x1 = 0.7999	–	91.38
303.15 K, x1 = 0.8996	1338.6	–
303.15 K, x1 = 0.8998	–	88.75
303.15 K, x1 = 1	1354.8	87.98
308.15 K, x1 = 0.1003	1218.7	92.07
308.15 K, x1 = 0.2001	–	87.89
308.15 K, x1 = 0.2004	1231.9	–
308.15 K, x1 = 0.2997	–	83.89
308.15 K, x1 = 0.3003	1245.3	–
308.15 K, x1 = 0.3999	1259	80.56
308.15 K, x1 = 0.4996	–	77.78
308.15 K, x1 = 0.5007	1273.4	–
308.15 K, x1 = 0.5991	1287.9	75.21
308.15 K, x1 = 0.6954	1302.4	–
308.15 K, x1 = 0.6997	–	73.36
308.15 K, x1 = 0.7997	1318.8	–
308.15 K, x1 = 0.7999	–	71.46
308.15 K, x1 = 0.8996	1334.9	–
308.15 K, x1 = 0.8998	–	69.32
308.15 K, x1 = 1	1351.2	68.59
313.15 K, x1 = 0.1003	1215.2	71.96
313.15 K, x1 = 0.2001	–	69.99
313.15 K, x1 = 0.2004	1228.4	–
313.15 K, x1 = 0.2997	–	66.1
313.15 K, x1 = 0.3003	1241.8	–
313.15 K, x1 = 0.3999	1255.5	63.68
313.15 K, x1 = 0.4996	–	61.56
313.15 K, x1 = 0.5007	1269.9	–
313.15 K, x1 = 0.5991	1284.4	59.69
313.15 K, x1 = 0.6954	1298.8	–
313.15 K, x1 = 0.6997	–	58.34
313.15 K, x1 = 0.7997	1315.1	–
313.15 K, x1 = 0.7999	–	56.8
313.15 K, x1 = 0.8996	1331.2	–
313.15 K, x1 = 0.8998	–	55.18
313.15 K, x1 = 1	1347.4	54.81
318.15 K, x1 = 0.1003	–	57.27
318.15 K, x1 = 0.2001	–	55.12
318.15 K, x1 = 0.2997	–	52.99
318.15 K, x1 = 0.3999	–	51.21
318.15 K, x1 = 0.4996	–	49.63
318.15 K, x1 = 0.5991	–	48.25
318.15 K, x1 = 0.6997	–	47.11
318.15 K, x1 = 0.7999	–	45.99
318.15 K, x1 = 0.8998	–	44.69
318.15 K, x1 = 1	–	44.44
